KLS-positive rate, Viable cell count and mCherry-positive rate data for 7 molecules are collected here from patent US20230094952A1, “Method for Culturing Hematopoietic Stem Cells” (Sumitomo Pharma Co., Ltd., priority 2019, published 2023).

For this assay, the system named is mouse long-term hematopoietic stem cells. Briefly: Reproducibility and concentration dependence test: 1-week culture of sorted Hoxb5-tri-mCherry mouse long-term hematopoietic stem cells, flow cytometry. To be noted: Table 4, day 7 of culture, n=2. In kind it is cell-based. As to the method: Mice with insertion of a nucleic acid sequence containing three copies of a gene encoding the fluorescent protein mCherry to the C terminus of the mouse endogenous HoxB5 gene (Hoxb5-tri-mCherry) were used (triple-mCherry Hoxb5 knock-in mice; Non Patent Literature 1). The mice were housed under environmental conditions such that the room temperature and the humidity were 20 to 26° C. and 40 to 70%, respectively, under light for 12 hours and under dark for 12 hours (illumination: 8:00 a.m. to 8:00 p.m.).
Bone marrow cells were collected from the tibia, femur, humerus, and pelvis in each side of each of the mice, and gathered in a mortar. A buffer obtained by adding thermally deactivated bovine serum (manufactured by Gibco) at a final concentration of 2% and EDTA at a final concentration of 2 mM to Ca^2+-free and Mg^2+-free PBS was added, and the resultant was broken with a pestle to obtain a cell population including hematopoietic stem cells.
First, the thus-obtained cell population including hematopoietic stem cells was passed through strainers (meshes) of 100 μm, 70 μm, and 40 μm. The cell population was stained with an APC-binding anti-c-Kit (2B8) and fractionated with anti-APC magnetic beads and an LS column (both manufactured by Miltenyi Biotec) to obtain a cell population enriched with hematopoietic stem cells and progenitor cells.
Subsequently, cells being c-Kit-positive were stained with antibodies for the following cell surface markers.
Staining with the antibodies was performed at 4° C., and the cells were incubated for 30 minutes. For staining with the CD34 antibody, the cells were incubated for 90 minutes. Dead cell staining was performed with SYTOX Red Dead Cell Stain (manufactured by Life Technologies) in accordance with a method recommended by the manufacturer.
Flow cytometry analysis and cell classification (cell sorting) were performed with a FACS Aria II cell sorter (manufactured by BD Biosciences), wherein Lineage-negative, c-Kit-positive, Sca-1-positive, Flk2-negative, CD34-negative or weakly CD34-positive, CD150-positive, and mCherry-positive fractions were regarded as long-term hematopoietic stem cells, and analysis was performed with the software FlowJo (manufactured by Tree Star, Inc.).
The cells after classification were seeded in a 96-well plate. A cell culture medium was prepared by adding Stem Cell Factor (SCF, manufactured by PeproTech, Inc.) and Thrombopoietin (TPO, manufactured by PeproTech, Inc.) to StemSpan SFEM culture medium (manufactured by […] Technologies Inc.) and added in advance to a cell culture 96-well plate (manufactured by BD Biosciences) at 100 μL/well, and the cells sorted with the FACS Aria II cell sorter (BD Biosciences) were then seeded at 10 cells/well.
[…] Thereafter, the cells were cultured in a CO2 incubator under conditions of 37° C. and 5% CO2 for 1 week.
After culture, the cells were stained with the antibodies for the surface markers c-Kit and Sca-1, Ter-119, B220, CD3, CD4, CD8a, Gr-1, and CD11b, and the ratio and post-growth cell count of a KLS fraction (c-Kit^+, Lin^−, Sca-1^+) or an mCherry-positive fraction given with use of a FACS Aria II cell sorter were analyzed by using FlowJo (BD Biosciences). The mCherry-positive fraction is a cell fraction expressing the Hoxb5 gene, and the KLS fraction is a cell fraction being c-Kit-positive, Lin-negative, and Sca-1-positive, and includes hematopoietic stem cells and multipotent progenitor cells as main components. […]

As to `C[C@H]1[C@H](C(=O)O)O[C@@H]2O[C@@]3(C)CC[C@H]4[C@H](C)CC[C@@H]1[C@@]24OO3` [Example 1-8, (3R,5aS,6R,8aS,9R,10R,12R,12aR)-3,6,9-Trimethyldecahydro-12H-3,12-epoxypyrano[4,3-j][1,2]benzodioxepine-10-carboxylic acid], the KLS-positive rate by setting is: (compound 0.1 μM) 17.3%; (compound 0.3 μM) 18.2%; (compound 1 μM) 28.7%; (compound 3 μM) 37.3%; (compound 10 μM) 20.6%. The Viable cell count runs as follows: (compound 0.1 μM) 396.5 cell; (compound 0.3 μM) 379.5 cell; (compound 1 μM) 248.0 cell; (compound 3 μM) 204.5 cell; (compound 10 μM) 286.5 cell. In addition, the mCherry-positive rate runs as follows: (compound 0.1 μM) 3.0%; (compound 0.3 μM) 7.7%; (compound 1 μM) 12.0%; (compound 3 μM) 12.9%; (compound 10 μM) 29.0%.
As to `C[C@H]1[C@H](n2cc(-c3ccccc3)nn2)O[C@@H]2O[C@@]3(C)CC[C@H]4[C@H](C)CC[C@@H]1[C@@]24OO3` [Example 1-9, 4-Phenyl-1-[(3R,5aS,6R,8aS,9R,10R,12R,12aR)-3,6,9-trimethyldecahydro-12H-3,12-epoxypyrano[4,3-j][1,2]benzodioxepin-10-yl]-1H-1,2,3-triazole], the KLS-positive rate was 10.6% (compound 0.1 μM); 31.1% (compound 0.3 μM); 34.3% (compound 1 μM); 14.1% (compound 3 μM); 27.1% (compound 10 μM). Besides, the Viable cell count turned out to be 627.5 cell (compound 0.1 μM); 500.0 cell (compound 0.3 μM); 625.0 cell (compound 1 μM); 479.0 cell (compound 3 μM); 491.5 cell (compound 10 μM). In addition, the mCherry-positive rate is on record as 5.9% (compound 0.1 μM); 4.5% (compound 0.3 μM); 9.4% (compound 1 μM); 8.1% (compound 3 μM); 11.4% (compound 10 μM).
Consider `CC(=O)N[C@@H]1O[C@@H]2O[C@@]3(C)CC[C@H]4[C@H](C)CC[C@@H]([C@H]1C)[C@@]24OO3` [Example 1-10, N-[(3R,5aS,6R,8aS,9R,10R,12R,12aR)-3,6,9-Trimethyldecahydro-12H-3,12-epoxypyrano[4,3-j][1,2]benzodioxepin-10-yl]acetamide], for which the KLS-positive rate by setting is: (compound 0.1 μM) 19.7%; (compound 0.3 μM) 23.1%; (compound 1 μM) 32.9%; (compound 3 μM) 33.1%; (compound 10 μM) 53.1%. Also, the Viable cell count (compound 0.1 μM) amounted to 717.5 cell; the Viable cell count (compound 0.3 μM) amounted to 387.0 cell; the Viable cell count (compound 1 μM) was 325.5 cell; the Viable cell count (compound 3 μM) stood at 579.0 cell; the Viable cell count (compound 10 μM) stood at 46.5 cell. The mCherry-positive rate (compound 0.1 μM) is reported as 6.5%; the mCherry-positive rate (compound 0.3 μM) came to 16.5%; the mCherry-positive rate (compound 1 μM) was 9.1%; the mCherry-positive rate (compound 3 μM) came to 38.5%; the mCherry-positive rate (compound 10 μM) was 99.3%.
Take `C[C@H]1[C@H](NS(C)(=O)=O)O[C@@H]2O[C@@]3(C)CC[C@H]4[C@H](C)CC[C@@H]1[C@@]24OO3` [Example 1-11, N-[(3R,5aS,6R,8aS,9R,10R,12R,12aR)-3,6,9-Trimethyldecahydro-12H-3,12-epoxypyrano[4,3-j][1,2]benzodioxepin-10-yl]methanesulfonamide]: the KLS-positive rate by setting is: (compound 0.1 μM) 13.2%; (compound 0.3 μM) 17.6%; (compound 1 μM) 26.0%; (compound 3 μM) 32.4%; (compound 10 μM) 100.0%. The molecule further had a Viable cell count (compound 0.1 μM) of 452.5 cell; a Viable cell count (compound 0.3 μM) of 267.0 cell; a Viable cell count (compound 1 μM) of 196.0 cell; a Viable cell count (compound 3 μM) of 31.0 cell; a Viable cell count (compound 10 μM) of 1.5 cell. The mCherry-positive rate turned out to be 14.3% (compound 0.1 μM); 29.2% (compound 0.3 μM); 60.4% (compound 1 μM); 86.2% (compound 3 μM); 100.0% (compound 10 μM).
Take `C[C@H]1[C@H](N(C)C)O[C@@H]2O[C@@]3(C)CC[C@H]4[C@H](C)CC[C@@H]1[C@@]24OO3` [Example 1-12, (3R,5aS,6R,8aS,9R,10R,12R,12aR)—N,N,3,6,9-Pentamethyldecahydro-12H-3,12-epoxypyrano[4,3-j][1,2]benzodioxepin-10-amine]: the KLS-positive rate runs as follows: (compound 0.1 μM) 27.2%; (compound 0.3 μM) 15.8%; (compound 1 μM) 19.3%; (compound 3 μM) 14.4%; (compound 10 μM) 36.6%. Also, the Viable cell count reads like this: (compound 0.1 μM) 450.5 cell; (compound 0.3 μM) 262.0 cell; (compound 1 μM) 431.5 cell; (compound 3 μM) 217.0 cell; (compound 10 μM) 234.5 cell. Besides, the mCherry-positive rate worked out at 7.3% (compound 0.1 μM); 15.2% (compound 0.3 μM); 8.2% (compound 1 μM); 19.4% (compound 3 μM); 12.1% (compound 10 μM).
With `C[C@H]1[C@H](N2CCOCC2)O[C@@H]2O[C@@]3(C)CC[C@H]4[C@H](C)CC[C@@H]1[C@@]24OO3` [Example 1-13, 4-[(3R,5aS,6R,8aS,9R,10R,12R,12aR)-3,6,9-Trimethyldecahydro-12H-3,12-epoxypyrano[4,3-j][1,2]benzodioxepin-10-yl]morpholine], the KLS-positive rate by setting is: (compound 0.1 μM) 22.1%; (compound 0.3 μM) 14.7%; (compound 1 μM) 21.0%; (compound 3 μM) 0.0%; (compound 10 μM) 0.0%. In addition, the Viable cell count runs as follows: (compound 0.1 μM) 201.0 cell; (compound 0.3 μM) 605.0 cell; (compound 1 μM) 136.5 cell; (compound 3 μM) 0.0 cell; (compound 10 μM) 0.0 cell. Moreover, the mCherry-positive rate reads like this: (compound 0.1 μM) 24.3%; (compound 0.3 μM) 2.9%; (compound 1 μM) 6.7%; (compound 3 μM) 0.0%; (compound 10 μM) 0.0%.
As for `CC(=O)O[C@@H]1O[C@@H]2O[C@@]3(C)CC[C@H]4[C@H](C)CC[C@@H]([C@H]1C)[C@@]24OO3` [Example 1-14, (3R,5aS,6R,8aS,9R,10S,12R,12aR)-3,6,9-Trimethyldecahydro-12H-3,12-epoxypyrano[4,3-j][1,2]benzodioxepin-10-yl acetate], the KLS-positive rate reads like this: (compound 0.1 μM) 20.6%; (compound 0.3 μM) 30.1%; (compound 1 μM) 47.3%; (compound 3 μM) 50.0%; (compound 10 μM) 0.0%. Moreover, the Viable cell count is listed as 497.5 cell (compound 0.1 μM); 340.0 cell (compound 0.3 μM); 119.0 cell (compound 1 μM); 1.0 cell (compound 3 μM); 0.5 cell (compound 10 μM). Besides, the mCherry-positive rate turned out to be 0.2% (compound 0.1 μM); 9.0% (compound 0.3 μM); 22.1% (compound 1 μM); 100.0% (compound 3 μM); 0.0% (compound 10 μM).
